The target of the experiment is human GPR17 short isoform (Homo sapiens (Human), UniProt Q13304). As to the kind of experiment: GPR17 cAMP assay (hGPR17 cAMP, antagonist mode against EC80 of MDL29,951). Type of experiment: cell-based. The conditions noted are these: CHO-K1 cells stably expressing human GPR17 short isoform; EC80 of agonist MDL29,951; forskolin 15 μM. The procedure:
GPR17 cAMP Assay Protocol:
CHO-K1 cells stably expressing vector containing untagged human GPR17 short isoform (Roche) were cultured at 37° C./5% CO2 in DMEM (Dulbecco's Modified Eagle Medium):F-12 (1:1) supplemented with 10% foetal bovine serum and 400 μg/ml Geneticin.
Changes in intracellular cyclic adenosine monophosphate (cAMP) levels were quantified using the Nano-TRF Detection Assay kit (Roche Diagnostics, Cat. No. 05214386001). This assay allows for direct cAMP quantification in a homogeneous solution, cAMP is detected based on time-resolved fluorescence energy transfer (TR-FRET) and competitive binding of ruthenylated cAMP and endogenous cAMP to an anti-cAMP monoclonal antibody labeled with AlexaFluor-700. The Ruthenium complex serves as the FRET donor and transfers energy to AlexaFluor-700. The FRET signal is inversely proportional to the cAMP concentration.
CHO-GPR17S cells were detached with Accutase and resuspended in assay buffer consisting of Hank's Balanced Salt Solution (HBSS), 10 mM HEPES (4-(2-hydroxyethyl) piperazine-1-ethanesulfonic acid solution) and 0.1% bovine serum albumin (pH 7.4). The cells were seeded in black 384-well plates (Corning) at a density of 10,000 cells/20 μl assay buffer until the addition of compounds.
Test antagonist compounds were serially diluted in dimethyl sulfoxide (DMSO) and spotted in 384-well plates. The compounds were then diluted in HBSS buffer supplemented with an EC80 concentration of MDL29,951 (3-(2-Carboxy-4,6-dichloroindol-3-yl)propionic acid) (GPR17 agonist) plus 3-Isobutyl-1-methylxanthine (IBMX) (0.5 mM final concentration) and added to the cells at room temperature. Forskolin (15 μM final concentration) was added 5 minutes after the test compounds and the cells were incubated at room temperature for 30 minutes. The assay was stopped by adding cAMP detection mix (containing detergents for cell lysis) for 90 minutes at room temperature.
Cellular cAMP was measured using a Paradigm reader (Molecular Devices). The raw data was used to calculate the FRET signal based on the assay's P-factor as per cAMP kit instructions. The data was normalized to the maximal activity of a reference antagonist and dose response curves were fitted to the percent activity of the test compounds using a sigmoidal dose response model (Genedata Screener).
Chain of human GPR17 short isoform (Q13304 29-367): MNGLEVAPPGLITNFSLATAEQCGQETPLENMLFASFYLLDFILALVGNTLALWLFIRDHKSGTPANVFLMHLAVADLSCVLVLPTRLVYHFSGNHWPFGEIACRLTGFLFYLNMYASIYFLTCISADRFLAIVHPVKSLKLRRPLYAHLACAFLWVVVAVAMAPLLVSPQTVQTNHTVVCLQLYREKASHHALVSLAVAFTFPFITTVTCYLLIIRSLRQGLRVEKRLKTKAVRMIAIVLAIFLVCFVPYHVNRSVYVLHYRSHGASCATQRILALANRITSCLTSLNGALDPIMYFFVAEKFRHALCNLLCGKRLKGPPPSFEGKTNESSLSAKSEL
Turning to `COc1nc(NS(=O)(=O)c2csc3nc(Br)ccc23)ncc1CC(F)F` [Example 148, 6-bromo-N-[5-(2,2-difluoroethyl)-4-methoxy-pyrimidin-2-yl]thieno[2,3-b]pyridine-3-sulfonamide], the IC50 was 49 nM. `COc1nc(NS(=O)(=O)c2c[nH]c3cc(Cl)ccc23)nc(SC)c1OC(F)F` [Example 86, 6-chloro-N-[5-(difluoromethoxy)-4-methoxy-6-methylsulfanyl-pyrimidin-2-yl]-1H-indole-3-sulfonamide] came in with an IC50 of 117 nM. Take `COC(=O)c1c(C)ccc2c(S(=O)(=O)Nc3ncc(CC(F)F)c(OC)n3)c[nH]c12` [Example 291, 3-[[5-(2,2-Difluoroethyl)-4-Methoxy-Pyrimidin-2-Yl]Sulfamoyl]-6-Methyl-1H-Indole-7-Carboxylic Acid Methyl Ester]: the IC50 amounted to 842 nM. Compound `COc1nc(NS(=O)(=O)c2c[nH]c3c([S+](C)[O-])c(Cl)ccc23)nc(OC)c1CC(F)F` (stereo not shown) [Example 279, 6-chloro-N-[5-(2,2-difluoroethyl)-4,6-dimethoxy-pyrimidin-2-yl]-7-methylsulfinyl-1H-indole-3-Sulfonamide] had an IC50 of 69 nM. The compound `COCCOc1cnc(NS(=O)(=O)c2c[nH]c3cc(Cl)ccc23)nc1OC` [Example 7, 6-chloro-N-[4-methoxy-5-(2-methoxyethoxy)pyrimidin-2-yl]-1H-indole-3-sulfonamide] yielded an IC50 of 403 nM. This IC50 is about 5.8-fold higher than that of the compound before. The figure for `COc1nc(NS(=O)(=O)c2c[nH]c3c(Br)c(Cl)ccc23)nc(OC)c1CC(F)F` [Example 283, 7-Bromo-6-Chloro-N-[5-(2,2-Difluoroethyl)-4,6-Dimethoxy-Pyrimidin-2-Yl]-1H-Indole-3-Sulfonamide] is 13 nM; for `COc1nc(NS(=O)(=O)c2c[nH]c3cc(Cl)ccc23)ncc1OC(F)(F)C(F)F` [Example 43, 6-chloro-N-[4-methoxy-5-(1,1,2,2-tetrafluoroethoxy)pyrimidin-2-yl]-1H-indole-3-sulfonamide] it is 60 nM; for `COc1nc(NS(=O)(=O)c2c[nH]c3cc(C)ccc23)ncc1CC(F)F` [Example 182, N-[5-(2,2-difluoroethyl)-4-methoxy-pyrimidin-2-yl]-6-methyl-1H-indole-3-sulfonamide] it is 101 nM. In the case of `COc1nc(NS(=O)(=O)c2c[nH]c3c(F)c(Br)ccc23)nc(OC)c1OCC(F)F` [Example 242, 6-bromo-N-[5-(2,2-difluoroethoxy)-4,6-dimethoxy-pyrimidin-2-yl]-7-fluoro-1H-indole-3-sulfonamide] it was 43 nM.

As to `COc1nc(NS(=O)(=O)c2csc3cc(C)ccc23)ncc1OCCF` [Example 159, N-[5-(2-fluoroethoxy)-4-methoxy-pyrimidin-2-yl]-6-methyl-benzothiophene-3-sulfonamide], the IC50 amounted to 218 nM. The figure for `COc1nc(NS(=O)(=O)c2c[nH]c3cc(Cl)ccc23)ncc1SC` [Example 36, 6-chloro-N-(4-methoxy-5-methylsulfanyl-pyrimidin-2-yl)-1H-indole-3-sulfonamide] is 119 nM; for `COc1nc(NS(=O)(=O)c2c[nH]c3c(F)c(Br)ccc23)nc(OC)c1CCC#N` [Example 243, 6-bromo-N-[5-(2-cyanoethyl)-4,6-dimethoxy-pyrimidin-2-yl]-7-fluoro-1H-indole-3-sulfonamide] it is 9 nM. Compound `COc1nc(NS(=O)(=O)c2c[nH]c3c(Br)c(Cl)ccc23)ncc1CC(F)F` [Example 142, 7-bromo-6-chloro-N-[5-(2,2-difluoroethyl)-4-methoxy-pyrimidin-2-yl]-1H-indole-3-sulfonamide] registered an IC50 of 29 nM. Compared with the last compound, the IC50 is about 3.2-fold higher. On to `COc1nc(NS(=O)(=O)c2c[nH]c3c(OC4CC4)c(Cl)ccc23)ncc1OCCF` [Example 5, 6-chloro-7-(cyclopropoxy)-N-[5-(2-fluoroethoxy)-4-methoxy-pyrimidin-2-yl]-1H-indole-3-sulfonamide], for which the IC50 worked out at 103 nM. For the compound `COc1nc(NS(=O)(=O)c2c[nH]c3cc(C(F)F)ccc23)ncc1CC(F)F` [Example 195, N-[5-(2,2-difluoroethyl)-4-methoxy-pyrimidin-2-yl]-6-(difluoromethyl)-1H-indole-3-sulfonamide], the IC50 is 54 nM.

Compound `COc1nc(NS(=O)(=O)c2c[nH]c3nc(Cl)ccc23)ncc1CCC(F)F` [Example 204, 6-chloro-N-[5-(3,3-difluoropropyl)-4-methoxy-pyrimidin-2-yl]-1H-pyrrolo[2,3-b]pyridine-3-sulfonamide] came in with an IC50 of 29 nM.

`CC#Cc1c(OC)nc(NS(=O)(=O)c2c[nH]c3cc(Cl)ccc23)nc1OC` [Example 57, 6-chloro-N-(4,6-dimethoxy-5-prop-1-ynyl-pyrimidin-2-yl)-1H-indole-3-sulfonamide] yielded an IC50 of 34 nM. On to `COc1nc(NS(=O)(=O)c2c[nH]c3cc(C4COC4)ccc23)ncc1CC(F)F` [Example 272, N-[5-(2,2-difluoroethyl)-4-methoxy-pyrimidin-2-yl]-6-(oxetan-3-yl)-1h-indole-3-sulfonamide], for which the IC50 came out at 1180 nM. In the case of `COc1nc(NS(=O)(=O)c2c[nH]c3c(F)c(Cl)ccc23)nc(OC)c1OCC#N` [Example 219, 6-chloro-N-[5-(cyanomethoxy)-4,6-dimethoxy-pyrimidin-2-yl]-7-fluoro-1H-indole-3-sulfonamide] it was 18 nM; in that of `CSc1nc(NS(=O)(=O)c2c[nH]c3cc(Cl)ccc23)ncc1OCC(F)F` [Example 35, 6-chloro-N-[5-(2,2-difluoroethoxy)-4-methylsulfanyl-pyrimidin-2-yl]-1H-indole-3-sulfonamide], 479 nM.

With `COCCc1cnc(NS(=O)(=O)c2c[nH]c3cc(Cl)ccc23)nc1OC` [Example 49, 6-chloro-N-[4-methoxy-5-(2-methoxyethyl)pyrimidin-2-yl]-1H-indole-3-sulfonamide], the IC50 stood at 809 nM.

As for `COc1nc(NS(=O)(=O)c2c[nH]c3cc(Cl)ccc23)ncc1CC(F)C(F)F` (stereo not shown) [Example 266, 6-chloro-N-[4-methoxy-5-(2,3,3-trifluoropropyl)pyrimidin-2-yl]-1H-indole-3-sulfonamide], the IC50 came out at 90 nM. The figure for `COc1nc(NS(=O)(=O)c2c[nH]c3cc(C(F)F)ccc23)nc(OC)c1CCC#N` [Example 103, N-[5-(2-cyanoethyl)-4,6-dimethoxy-pyrimidin-2-yl]-6-(difluoromethyl)-1H-indole-3-sulfonamide] is 11 nM; for `COc1nc(NS(=O)(=O)c2csc3nc(Br)ccc23)nc(OC)c1C` [Example 144, 6-bromo-N-(4,6-dimethoxy-5-methyl-pyrimidin-2-yl)thieno[2,3-b]pyridine-3-sulfonamide] it is 50 nM. The compound `COc1nc(NS(=O)(=O)c2c[nH]c3c(SC)c(Cl)ccc23)ncc1CC(F)F` [Example 234, 6-chloro-N-[5-(2,2-difluoroethyl)-4-methoxy-pyrimidin-2-yl]-7-(methylthio)-1H-indole-3-sulfonamide] returned an IC50 of 16 nM.

On to `O=S(=O)(Nc1ncc(OCC(F)F)c(Cl)n1)c1c[nH]c2cc(Cl)ccc12` [Example 76, 6-chloro-N-[4-chloro-5-(2,2-difluoroethoxy)pyrimidin-2-yl]-1H-indole-3-sulfonamide], for which the half-inhibitory concentration (IC50) was 916 nM.

`COc1nc(NS(=O)(=O)c2c[nH]c3cc(Cl)ccc23)ncc1C(C)(F)F` [Example 136, 6-chloro-N-[5-(1,1-difluoroethyl)-4-methoxy-pyrimidin-2-yl]-1H-indole-3-sulfonamide] displayed an IC50 of 747 nM.

As to `COc1nc(NS(=O)(=O)c2c[nH]c3c4c(ccc23)CCN(C)C4=O)ncc1OCCF` [Example 293, N-[5-(2-Fluoroethoxy)-4-Methoxy-Pyrimidin-2-Yl]-9-Keto-8-Methyl-6,7-Dihydro-1H-Pyrrol[3,2-h]Isoquinoline-3-Sulfonamide], the IC50 stood at 240 nM. This IC50 is about 3.1-fold lower than that of the compound before. Take `COc1nc(NS(=O)(=O)c2c[nH]c3c(Br)c(Cl)ccc23)ncc1CCC#N` [Example 255, 7-bromo-6-chloro-N-[5-(2-cyanoethyl)-4-methoxy-pyrimidin-2-yl]-1H-indole-3-sulfonamide]: the IC50 was determined as 38 nM.

Compound `COc1nc(NS(=O)(=O)c2c[nH]c3cc(Cl)ccc23)ncc1C1COC1` [Example 50, 6-chloro-N-[4-methoxy-5-(oxetan-3-yl)pyrimidin-2-yl]-1H-indole-3-sulfonamide] came in with an IC50 of 2790 nM.

`COc1nc(NS(=O)(=O)c2csc3nc(C(F)F)ccc23)ncc1CC(F)F` [Example 166, N-[5-(2,2-difluoroethyl)-4-methoxy-pyrimidin-2-yl]-6-(difluoromethyl)thieno[2,3-b]pyridine-3-sulfonamide]: the IC50 came out at 1160 nM.

(Values after patent US20240025883A1, “PYRIMIDIN-2-YL SULFONAMIDE DERIVATIVES” (Hoffmann-La Roche Inc., priority 2021, published 2024).)
